This is an account of results in US9238619B2, “Phenalkylamine derivatives, pharmaceutical compositions containing them, and their use in therapy” (AbbVie Deutschland GmbH & Co. KG, priority 2010, dated 2016).

Structures are written as SMILES. Structures can show the parent of a compound that is named as a salt.

The target of this experiment is human GlyT1c transporter (Homo sapiens (Human), UniProt P48067). In words: Radioligand binding assays using recombinant CHO cell membranes expressing human GlyT1. The settings on record: read-out: radioligand binding Kiapp. On the procedure: Radioligand binding to human GlyT1c transporter-expressing membranes was determined as described in Mezler et al., Molecular Pharmacology 74:1705-1715, 2008.
Sequence of human GlyT1c transporter (P48067 whole entry): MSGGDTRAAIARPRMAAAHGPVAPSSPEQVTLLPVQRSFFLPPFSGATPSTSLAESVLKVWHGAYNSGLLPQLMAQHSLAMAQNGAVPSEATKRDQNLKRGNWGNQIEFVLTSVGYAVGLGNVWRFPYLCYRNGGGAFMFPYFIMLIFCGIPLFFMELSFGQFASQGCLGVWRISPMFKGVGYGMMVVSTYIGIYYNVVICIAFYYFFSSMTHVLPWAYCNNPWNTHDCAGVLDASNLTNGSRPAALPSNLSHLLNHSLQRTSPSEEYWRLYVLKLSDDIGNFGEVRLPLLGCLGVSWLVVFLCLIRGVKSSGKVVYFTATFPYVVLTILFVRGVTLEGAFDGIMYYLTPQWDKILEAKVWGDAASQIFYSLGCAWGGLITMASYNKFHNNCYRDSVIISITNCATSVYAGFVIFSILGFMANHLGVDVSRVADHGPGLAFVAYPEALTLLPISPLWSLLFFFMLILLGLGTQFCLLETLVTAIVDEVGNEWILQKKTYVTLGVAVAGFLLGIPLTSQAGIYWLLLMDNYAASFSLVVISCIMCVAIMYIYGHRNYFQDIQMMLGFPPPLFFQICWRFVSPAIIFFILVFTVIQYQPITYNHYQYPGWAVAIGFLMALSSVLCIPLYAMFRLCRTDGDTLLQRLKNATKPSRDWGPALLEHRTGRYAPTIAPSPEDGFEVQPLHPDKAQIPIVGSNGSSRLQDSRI
`Cn1cnc(S(=O)(=O)NCCOc2cccc(C3(Cc4ccccc4)CN(CCF)C3)c2)c1` [Example 72, 1-Methyl-1H-imidazole-4-sulfonic acid (2-{3-[3-benzyl-1-(2-fluoro-ethyl)azetidin-3-yl]-phenoxy}-ethyl)-amide]: the Ki was no more than 100 nM.
Regarding `Cn1cnc(S(=O)(=O)NCCOc2cccc(C3(Cc4ccccc4)CCNC3)c2)c1` (centres unmarked) [Example 61, 1-Methyl-1H-imidazole-4-sulfonic acid {2-[3-(3-benzyl-pyrrolidin-3-yl)phenoxy]-ethyl}-amide], the Ki is no more than 100 nM.
As for `Cn1cc(S(=O)(=O)NCCOc2cccc(C(CN)Cc3cc(F)cc(F)c3)c2)cn1` (centres unmarked) [Example 7, 1-Methyl-1H-pyrazole-4-sulfonic acid (2-{3-[2-amino-1-(3,5-difluoro-benzyl)ethyl]-phenoxy}-ethyl)-amide, hydrochloride], the Ki is no more than 1000 nM.
As for `Cn1cnc(S(=O)(=O)NCc2cccc(C(Cc3ccccc3)CN3CCOCC3)c2)c1` (centres unmarked) [Example 20, 1-Methyl-1H-imidazole-4-sulfonic acid 3-(1-benzyl-2-morpholin-4-yl-ethyl)benzylamide], the Ki is no more than 10000 nM.
On to `CN1CC(Cc2ccccc2)(c2ccc(F)c(OCCNS(=O)(=O)c3cn(C)cn3)c2)C1` [Example 52, 1-Methyl-1H-imidazole-4-sulfonic acid {2-[5-(3-benzyl-1-methyl-azetidin-3-yl)-2-fluoro-phenoxy]-ethyl}-amide], for which the Ki is no more than 100 nM.
